The results in this text go back to patent US4847302A, “Use of certain compounds in livestock food as growth promotants for better feed utilization and improved carcass composition” (Merck & Co., Inc., priority 1988, dated 1989).

Series [1] in a line: Toxicity (general statement).
Series [2] can be described thus: Growth, feed conversion and carcass composition of broilers raised in floor pens for 7 weeks. Type of series: in vivo. Particulars: 7 weeks. How it is done: Compound V (bitolterol) was compared to clenbuterol for effects on growth, feed conversion and carcass composition of broilers raised in floor pens for 7 weeks. […] Bitolterol at the highest dose improved rate of gain 2.6% (P 0.01), feed conversion 3.8% (P 0.05) and carcass protein 4.9% (P 0.10).
Clenbuterol at 0.5 ppm in the diet was administered for 7 weeks to one group and only during the last 4 weeks to another group. […] Clenbuterol given for 7 weeks improved feed conversion 3.5% (P 0.05) and appeared to improve (not significant) rate of gain 0.4%, carcass weight 0.7% and carcass protein 4.0% and to decrease (not significant) carcass fat 7.1%.

In series [3] the test system is Isolated Chicken Hepatocytes. The series is described as follows: Inhibition of lipogenesis (14C acetate incorporation) in isolated chicken hepatocytes. Type of series: cell-based. Particulars: for inhibition at 0.01 µM / inhibition at 0.05 µM / inhibition at 0.25 µM: Gallus gallus, Hepatocyte, 2 h, Test 1, read-out: percent change compared to control, 14C acetate incorporation in fatty acids. The protocol: Determination of anti-lipogenic activity in hepatocytes
Hepatocytes were isolated from chicken liver using the procedure for adipocytes and incubated for 2 hours at 37° C. in the presence of ^14 C acetate and test compounds. […] Isoproterenol, at the same concentrations, was used as a positive control. After incubation, 8 ml Doles reagent (isopropanol:hexane:H2 SO4, 40:10:1) was added and incubation vials were shaken at room temperature for 30 minutes. Vial contents were poured into 50 ml screw-cap tubes. Vials were then rinsed with 6 ml hexane which was poured into the appropriate 50 ml tube. Tubes were shaken by hand, 10 ml H2 O was added, and tubes were shaken again. After phase separation, 2 ml of the upper (hexane) phase was removed to scintillation vials. Hexane was evaporated by a gentle air flow and the remaining lipids were resuspended in 10 ml Scinti Verse II. ^14 C was counted in a Packard liquid scintillation counter. Data are reported as CPM of ^14 C acetate incorporated into total lipids.

For series [4], the system named is Isolated Swine Adipocytes. The series can be described thus: Stimulation of lipolysis (glycerol production) in isolated swine adipocytes. Type of series: cell-based. Particulars: Sus scrofa, Adipocyte, 2 h, Test 1, read-out: percent increase compared to control, glycerol production. How it is done: (§1) Fat was collected from freshly killed animals as follows: epididymal and perirenal fat from 150 to 200 g male rates; perirenal fat from 20 to 25 kg whether lambs, and perirenal and omental fat from 35 to 50 kg gilts. Immediately after collection, fat was placed in a siliconized beaker (all glassware was siliconized) containing Krebs-Ringer bicarbonate solution (KRB; pH 7.4) at 37° C. Fat was transferred to a clean beaker and finely chopped with scissors. Chopped fat was then used as such (whole adipose preparation) or treated with collagenase (isolated adipocytes).
(§2) Chopped fat was placed in a shaker containing 70 ml cell dispersion medium (CDM; 5 mM glucose, 0.1% collagenase, 4% bovine serum albumin (BSA), in KRB) and incubated at 37° C. for 1 hour with gentle shaking. Fat was then filtered to remove clumps and washed 4 times with washing medium (WM; 2.5 mM glucose, 1% BSA, in KRB) and 1 time with final suspension medium (FSM; 2.5 mM glucose, 2% essentially fatty acid free BSA, in KRB). Isolated adipocytes were then resuspended in the required amount of FSM (1 ml/flask, 3 flasks/treatment).
(§3) Whole adipose tissue from the rat (0.3 ml) or isolated adipocytes from sheep or swine (1 ml) were placed in plastic scintillation vials containing FSM (1.7 or 1 ml, respectively) and test compounds, and incubated at 37° C. for 2 hours. […] Isoproterenol, at the same concentrations, was used as a positive control. After incubation, media was removed and assayed for glycerol by a fluorometric modification of the method of Wieland (1974. Glycerol UV-method. pp. 1404. In: Bergmeyer (Ed.) Methods of Enzymatic Analysis. Verlag Chemie Weinham, Academic Press, New York).

A further series deals with Rat Adipose Tissue. The series can be described thus: Stimulation of lipolysis (glycerol production) in chopped rat adipose tissue. Type of series: cell-based. The note with it: Rattus norvegicus, 2 h, Test 1, read-out: percent increase compared to control, glycerol production. How it is done: as §1
Whole adipose tissue from the rat (0.3 ml) or isolated adipocytes from sheep or swine (1 ml) were placed in plastic scintillation vials containing FSM (1.7 or 1 ml, respectively) and test compounds, and incubated at 37° C. for 2 hours. […] Isoproterenol, at the same concentrations, was used as a positive control. After incubation, media was removed and assayed for glycerol by a fluorometric modification of the method of Wieland (1974. Glycerol UV-method. pp. 1404. In: Bergmeyer (Ed.) Methods of Enzymatic Analysis. Verlag Chemie Weinham, Academic Press, New York). […]

The nature of series [5]: Growth promoting activity / feed utilization in livestock (general statements). Type of series: in vivo.
A short description of series [6]: In vivo testing in rats: growth, feed conversion and carcass composition. Further details: species or system rat (male Charles River CD). The note with it: in diet, dose equivalent to 20 ppm clenbuterol (clenbuterol: 10). From the text: Eighty intact, male Charles River CD rats, 75-90 g, were housed and maintained on rat chow and water ad libitum. After four days acclimation ten rats per group were randomized by weight to treatment and pen. Compounds to be tested were premixed and added to ground rat chow using doses equivalent to 20 ppm of clenbuterol on a molecular weight basis. It had previously been determined 10 ppm of clenbuterol was the minimum dose needed to give maximum improvements in gain and feed conversion. Therefore, the results of any compound tested should cause responses similar to clenbuterol if the compound has half or more the activity of clenbuterol.

Series [7] has as its system Isolated Ovine Adipocytes. The series is described as follows: Stimulation of lipolysis (glycerol production) in isolated ovine adipocytes. Type of series: cell-based, sheep. Particulars: Test 1. How it is done:
as §1, §2, §3

On to `Cc1ccc(C(=O)Oc2ccc(C(O)CNC(C)(C)C)cc2OC(=O)c2ccc(C)cc2)cc1` (stereo not shown) [Compound V, Bitolterol], for which the level of toxicity entry in series [1] is listed as “very low level of toxicity”. Besides, in series [2] (0.5, 1.0 and 2.0 ppm in diet), the “carcass fat (in words)” value is reported as “did not reduce carcass fat”; the “rate of gain, feed conversion and carcass protein, dose response” value is “improved rate of gain, feed conversion and carcass protein in a dose-related manner”. The “improvement of rate of gain” value in series [2] (2.0 ppm in diet (highest dose), P 0.01) is 2.6%. Also, the “improvement of feed conversion” value in series [2] (2.0 ppm in diet (highest dose), P 0.05) is 3.8%. Also, the “improvement of carcass protein” value in series [2] (2.0 ppm in diet (highest dose), P 0.10) stood at 4.9%. Also, the “responses compared with clenbuterol at 0.5 ppm” value in series [2] (2.0 ppm in diet) is “better than those observed with clenbuterol at 0.5 ppm”. Besides, in series [3], the inhibition at 0.01 µM stood at 0%, the inhibition at 0.05 µM is 34% and the inhibition at 0.25 µM worked out at 64.6%. In series [4], the activation at 0.01 µM was 7%, the activation at 0.05 µM was 47% and the activation at 0.25 µM stood at 147%. Moreover, in the series with Rat Adipose Tissue, the activation at 0.01 µM stood at 17%, the activation at 0.05 µM turned out to be 33% and the activation at 0.25 µM stood at 111%. Further, the “activity in all species under consideration” value in series [5] was “high activity in all species under consideration”. Also, the level of activity entry in series [5] (in vivo) is listed as “high level of activity”. For the same compound, in series [6] (Test 1, control 7.3), the Gain is listed as 7.3 g/day. Moreover, the “Feed Intake” value in series [6] (Test 1, control 18.6) is reported as 18.7 g/day. Also, the Weight in series [6] (Test 1, control 191.8) is on record as 192.2 g. In series [6] (Test 1), the “Carcass Composition % of Change over Control, Fat” value is listed as -4.3% and the “Carcass Composition % of Change over Control, Protein” value is 3.1%. Further, in series [7] (Ovis aries, Adipocyte, 2 h, 0.05 μM, read-out: percent increase compared to control, glycerol production), the activation at 0.05 µM is 435%. Also, in series [7] (0.01 μM), the “percent increase compared to control, glycerol production” value was “inactive”.
As for `CC(CCc1ccccc1)NCC(O)c1ccc(N)nc1` (stereo not shown) [IV], in series [3], the inhibition at 0.01 µM was found to be 33.7%, the inhibition at 0.05 µM worked out at 54.3% and the inhibition at 0.25 µM amounted to 63.2%. In addition, in series [3] (chicken hepatocytes), the “antilipogenic activity relative to clenbuterol” value was “greater than 125 times” and the “antilipogenic activity relative to isoproterenol” value is listed as “five times”. Moreover, in series [4], the activation at 0.01 µM worked out at 260%, the activation at 0.05 µM stood at 333% and the activation at 0.25 µM was determined as 80%. Also, in the series on Rat Adipose Tissue, the activation at 0.01 µM was 114%, the activation at 0.05 µM came to 219% and the activation at 0.25 µM was 334%. Moreover, in series [5], the “activity in all species under consideration” value is listed as “high activity in all species under consideration”. Besides, the Gain in series [6] (Test 2, control 7.5) is on record as 8.4 g/day. Moreover, the “Feed Intake” value in series [6] (Test 2, control 19.3) came out at 20.7 g/day. Moreover, in series [6] (Test 2, control 202.3), the Weight was determined as 214.7 g. For the same compound, in series [6] (Test 2), the “Carcass Composition % of Change over Control, Fat” value is -16.1% and the “Carcass Composition % of Change over Control, Protein” value came to 5.0%. In addition, the activation at 0.01 µM in series [7] (Ovis aries, Adipocyte, 2 h, 0.01 μM, read-out: percent increase compared to control, glycerol production) is 820%.
